This is an account of results in patent publication US20090186000A1, “USE OF THYMOSIN ALPHA 1 FOR PREPARING A MEDICAMENT FOR THE TREATMENT OF STAGE IV MALIGNANT MELANOMA” (SIGMA-TAU INDUSTRIE FARMACEUTICHE RIUNITE S.P.A., priority 2006, published 2009).

Ends that are not written are not given here.

One test deals with metastatic melanoma. The note with it: cited from earlier work.
The subject of the next test is lymphosarcoma cells. The note with it: BALB/c mice; cited from earlier work.
For test [1], the system named is stage IV melanoma characterized by distant unresectable metastases. Briefly: Phase II clinical trial, tumor response by RECIST criteria. The test is classed as in vivo, human. The conditions noted are these: preliminary analysis on 142 patients; higher doses of Tα1.
Method: Trial Design phase II, randomized, stratified, open-study testing different doses of Tα1 in association with DTIC and IFNα, as first line therapy for stage IV melanoma patients characterized by distant unresectable metastases (AJCC; Journal of Clinical Oncology 2001, 19: 3635-3648) without brain metastases. The primary study end-point was tumor response, and the following combination composition were used: • DTIC (800 mg/m^2)+IFNα (3 MIU)+Tα1 (1.6 mg) (97 pts); • DTIC (800 mg/m^2)+IFNα (3 MIU)+Tα1 (3.2 mg) (97 pts); • DTIC (800 mg/m^2)+Tα1 (3.2 mg) (98 pts); • DTIC (800 mg/m^2)+IFNα (3 MIU) (94 pts);
The five groups were analyzed independently one another within the so-called “pick the winner” strategy.
Methods: Recycling every 28 days, patients were administered DTIC (800 mg/m^2) i.v. at day 1, Tα1 (1.6, 3.2 or 6.4 mg) s.c. at days 8-11 and 15-18, and IFNα (3 MIU) s.c. at day 11 and 18. Clinical response was evaluated every two cycles according to RECIST criteria (New Guidelines to Evaluate the Response to Treatment in Solid Tumors; Journal of the National Cancer Institute, 2000. 92: 205-216) utilizing a central reader.
The randomized patients were stratified according to the disease site: M1a, M1b or M1c level.
1) Patients with cutaneous, subcutaneous and/or limphnodal metastases with normal serum LDH value (from 96 to 460 U/L) were classified as M1a. […]
Test [2] concerns human non-small cell lung cancer (NSCLC) cells. The note with it: subcutaneous, 1 or 10 mg per day; nude mice inoculated with human NSCLC cells; cited from earlier work.
Setting [3] is: DTIC alone, metastatic melanoma.

`CN(C)/N=N/c1[nH]cnc1C(N)=O` [DTIC, Dacarbazine]: the actual overall responses in the test on metastatic melanoma (DTIC alone, metastatic melanoma, J Clin Oncol and ASCO proceedings 2004) was 5.5-6.8%. In addition, in the test with metastatic melanoma (setting [3]), the “duration of responses (short-lived)” value is “three to six” and the “effect of responses on patients' overall survival” value was “no evidence that these responses have any effect on the patients' overall survival”. Also, in the test on metastatic melanoma (literature population similar to 16% M1a, 25% M1b, 59% M1c), the DTIC efficacy is 5%.

With “thymosin alpha 1 (SDAAVDTSSEITTKDLKEKKEVVEEAEN; ends and bridges not checked; UniProt P06454 2-29, looked up) [a compound well known in the medical field]”, in the test with lymphosarcoma cells, the “liver and lung metastases” value is “significantly reduced”; the local sarcoma growth entry is “significantly reduced”. For the same compound, the “dose-response effect on tumor response” value in test [1] is given as “clear dose-response effect”. In addition, the tumor volume result in test [2] is given as “significantly decreased”.
